{"source": "patent US12478677B2", "about": "“Tunable luminescent organic salts for enhanced imaging and photodynamic therapy” (BOARD OF TRUSTEES OF MICHIGAN STATE UNIVERSITY, priority 2017, dated 2025)", "tested_on": "mitochondrial superoxide", "assay": "MitoSOX measurement of mitochondrial superoxide", "assay_type": "cell-based, human", "conditions": "A549 cells treated 4 days at phototoxic concentrations; with or without light", "text": "FIG. 22. Luminescent organic salts generate mitochondrial ROS. […] MitoSOX is used to measure mitochondrial superoxide, and H2DCFDA for general cytoplasmic ROS in A549 cell treated with organic salts at indicated phototoxic concentrations for 4 days.\nPhotoactive agents accumulate in the mitochondria of cancer cells and generate reactive oxygen species (ROS) with light exposure, depolarizing the mitochondrial membrane potential to cause cell death. Small molecule protective agents that quench ROS have been used to decrease their phototoxicity. However, the exact type of ROS generated by each luminescent agent remains unclear. Photo-induced ROS include singlet oxygen, superoxide radical anion, hydrogen peroxide, hydroxyl radical and others (see FIG. 21). Superoxide is a highly reactive and biologically toxic species deployed in nature to kill invading organisms. It is often formed as a byproduct of mitochondrial respiration but is typically quenched by the highly efficient superoxide dismutase. Hydroxyl radicals are also highly reactive, damaging nearly all forms of biological molecules. Unlike superoxide radical, the hydroxyl radical cannot be easily quenched naturally via enzymes, and endogenous antioxidants are typically required. Singlet oxygen is the excited state of the common triplet oxygen (O2 ground state) and is highly reactive towards organic compounds. Singlet oxygen can be eliminated in mammalian systems by antioxidants. A range of nitroxy radicals can subsequently stem from superoxide (peroxynitrite) or peroxide (nitrogen dioxide) species. […] Each luminescent cation-anion pair generates specific ROS resonant with its own energy level, and cell types can be targeted by generating the key sensitizing ROS. For example, it is expected that CyFPhB is phototoxic (see FIGS. 11A and 11B and 12A and 12B) by generating reactive oxygen species, which can be resonant with its molecular orbital energy levels (FIG. 21). […] No cytoplasmic ROS is detected using general cytoplasmic ROS probe H2DCFDA. […]", "note": "Entries after “also recorded” stand apart in the source; their conditions may differ.", "data": [{"smiles": "CCN1C(=CC=C2CCCC(C=CC3=[N+](CC)c4ccc5ccccc5c4C3(C)C)=C2Cl)C(C)(C)c2c1ccc1ccccc21.Fc1c(F)c(F)c([B-](c2c(F)c(F)c(F)c(F)c2F)(c2c(F)c(F)c(F)c(F)c2F)c2c(F)c(F)c(F)c(F)c2F)c(F)c1F", "note": "[CyTPFB]", "values": [{"measurement": "Mitochondrial superoxide / ROS generation (MitoSOX), in words", "result": "generating minimal ROS even with light at high concentrations; also recorded: generating minimal superoxide even with light"}]}]}
